Entries after “also recorded” stand apart in the source; their conditions may differ.
Experiments:
[1] = Toxicity / body weight in Mino xenograft bearing NODscid mice; type: in vivo; conditions: for tolerability of dosing protocols: 0.5, 1.0 and 1.0-2.0 mg/kg s.c. daily; for animals removed from the study due to drug toxicity / treatment related deaths (TR): Group 5: escalating 1.0-2.0 mg/kg s.c., N = 10
Description: (§1) Animals were treated according to Table 3 below. Animals were dosed in the opposite flank opposing the tumors at 10 mL/kg. Daily clinical observations were made and body weights and tumor measurements were performed thrice weekly. Animals were maintained on study until their tumor burden reached the study endpoint of 2000 mm^3. Animals were euthanized at the study endpoint with terminal cardiocentesis performed for serum collection and plasma preparation in K2EDTA. Tumors were excised and fixed in 10% formalin.
Non-treatment related deaths (NTR), non-treatment metastatic related deaths (NTRm), and treatment related deaths (TR) were monitored. Animal body weight was monitored three times weekly throughout the study and mean % body weight loss was calculated and plotted with GraphPad Prism 5.0. Animals displaying >20% body weight loss were to be euthanized and recorded as TRs.

[2] = approved dose; alternative treatment 1.9 months; cited from earlier work
[3] = test system: Mino mantle cell lymphoma xenograft; assay: Tumor growth delay in Mino mantle cell lymphoma xenograft bearing NODscid mice; type: in vivo; conditions: for PR (partial response): N = 10; for Log10 cell kill (750 mm^3): activity threshold 0.7
Excerpt: 80 NOD .CB17 -Prkdcscid/J (NOD scid) (JAX, West Sacramento, Calif.) 4-6 week old female mice were transferred to the in vivo research laboratory in West Sacramento, CA. The mice were ear notched for identification and housed in individually and positively ventilated polycarbonate cages with HEPA filtered air at a density of five mice per cage. Bed-o'cobs® bedding was used and cages were changed every two weeks. The animal room was illuminated entirely with artificial fluorescent lighting, with a controlled 12 h light/dark cycle (7 am to 7 pm light). The normal temperature and relative humidity ranges in the animal rooms were 22±4° C. and 50±15%, respectively. The animal rooms were set to have 15 air exchanges per hour. Filtered tap water, acidified to a pH of 2.8 to 3.1, and LabDiet 5LL4 were provided ad libitum.
Mino Mantle Cell Lymphoma cells (ATCC catalogue #CRL-3000™, Manassas, Va.) were maintained in RPMI 1640 with 2 mM 1-glutamine, 25 mM HEPES, 4.5 g/L D-glucose (Invitrogen, San Diego, Calif.) supplemented with 10% ES cell certified fetal bovine serum (Hyclone, Logan, Utah). The cells were suspended at 1×10^8 cells/ml in serum free media, and 80 mice were subcutaneously injected in the rear right flanks with 10^7 cells in 100 μL. Tumor volumes were monitored with ULTRA-Cal IV digital calipers (Fowler, Newton, Mass.), and 50 animals were tumor size rank matched into five cohorts of 10 animals with mean tumor volumes of approximately 150 mm^3.
as §1
Animals were euthanized when the tumors had reached the 2000 mm^3 study endpoint, and the tumors were harvested, weighed, and placed in 10% formalin. Table 4 summarizes the clinical observation schedule and the body weight and tumor measurement schedule performed.
Tumor volumes were calculated from digital caliper raw data by using the formula: […]
The value w (width) was the smaller of two perpendicular tumor axes and the value l (length) was the larger of two perpendicular axes.
The tumor growth delay (TGD) method was used to analyze drug treatment effects on time (days) to tumor endpoint (TTE) for Mino tumor response. The tumor endpoint volume for TTE analysis was set at 2000 mm^3 and TTE was defined in days by the formula: […]
The value for b was the (y) intercept and m was the slope of the line calculated from a linear regression of log-transformed tumor growth data for each tumor calculated from a minimum of three time points preceding 2000 mm^3 and a minimum of one that surpassed the time point for 2000 mm^3. Treatment initiated when tumors reached approximately 150 mm^3, and animals were drugged according to Table 3. Tumors were monitored until animals were euthanized due to tumors reaching a 2000 mm^3 endpoint, and the study was concluded on day 59 post drug treatment initiation.
Treatment efficacy was determined by comparing TTE values calculated for each treatment group and by calculating percent tumor growth delay for each treatment group:
T represented the median TTE in days for a drug treatment group and C represented the median TTE in days for the control group. Statistical significance for median TTE values for treatment group comparisons was determined by the Log-rank test with GraphPad Prism 5.0 software (GraphPad, La Jolla, Calif.). A 95% confidence value was used for two-tailed statistical analyses. Log-rank survival curves were plotted based on survival to 2000 mm3 to visualize the statistical significance of the median TTE values between treatment groups. […]

[4] = 3.3 mg/kg i.v. days 1 and 8 (Group 2)
[5] = Group 1 vs. Group 3: vehicle control vs. 0.5 mg/kg s.c.
[6] = Group 1 vs. Group 4: vehicle control vs. 1.0 mg/kg s.c.
[7] = Group 1 vs. Group 5: vehicle control vs. 1.0-2.0 mg/kg s.c.
[8] = Group 3: 0.5 mg/kg s.c. daily days 1-33
[9] = Group 3 vs. Group 4: 0.5 mg/kg vs. 1.0 mg/kg s.c.
[10] = Group 3 vs. Group 5: 0.5 mg/kg vs. 1.0-2.0 mg/kg s.c.
[11] = Group 4: 1.0 mg/kg s.c. daily days 1-2, 5-33
[12] = Group 4 vs. Group 5: 1.0 mg/kg vs. 1.0-2.0 mg/kg s.c.
[13] = Group 5: escalating 1.0-2.0 mg/kg s.c. daily days 1-2, 5-33

COc1cccc2c1C(=O)c1c(O)c3c(c(O)c1C2=O)C[C@@](O)(C(=O)CO)C[C@@H]3O[C@H]1C[C@H](N)[C@H](O)[C@H](C)O1 [Adriamycin, doxorubicin, reference compound]
day by which animals were removed from study [1, 4]: ≤ 16 days | toxicity of positive control [1, 4]: significant body weight loss; also recorded: severe toxicity | toxicity of positive control ([1]; 3.3 mg/kg i.v. days 1 and 8 (Group 2), listed as adriamycin): significant treatment-related body weight loss

CO[C@H]1C[C@@H]2CC[C@@H](C)[C@@](O)(O2)C(=O)C(=O)N2CCCC[C@H]2C(=O)O[C@H]([C@H](C)C[C@@H]2CC[C@@H](OC(=O)C(C)(CO)CO)[C@H](OC)C2)CC(=O)[C@H](C)/C=C(\C)[C@@H](O)[C@@H](OC)C(=O)[C@H](C)C[C@H](C)/C=C/C=C/C=C/1C [Torisel, temsirolimus]
average time lived without disease getting worse [2]: 4.8 months

C=CC(C)(O)CC/C=C(\CO)C(=O)O[C@@H]1C(C)O[C@@H](O[C@](C)(C=C)CC/C=C(\CO)C(=O)O[C@H]2C[C@@]3(C(=O)O[C@@H]4OC(CO)[C@@H](O)C(O)C4O[C@@H]4OC(C)[C@H](O[C@@H]5O[C@@H](CO)C(O)[C@@H]5O)C(O[C@@H]5OC(CO)[C@@H](O)C(O)C5O)C4O)C(CC2(C)C)C2=CCC4[C@@]5(C)CC[C@H](O[C@@H]6OC(CO[C@@H]7OC(C)[C@H](O)C(O)C7O[C@@H]7OC[C@@H](O)C(O)C7O)[C@@H](O)C(O)C6NC(C)=O)C(C)(C)C5CC[C@@]4(C)[C@]2(C)C[C@H]3O)C(O)C1O (some centres unmarked) [AVD-001]
Hazard Ratio [3, 5]: 3.159 | Median survival Ratio (control/treated) [3, 5]: 0.7412 | Hazard Ratio [3, 6]: 3.492 | Median survival Ratio (control/treated) [3, 6]: 0.6941 | Hazard Ratio [3, 7]: 10.36 | Median survival Ratio (control/treated) [3, 7]: 0.5675 | Median Survival (to 2000 mm^3) ([3]; Group 3: 0.5 mg/kg s.c.): 29.2 days | % TGD (tumor growth delay) [3, 8]: 34.9% | Median TTE (time to tumor endpoint, 2000 mm^3) [3, 8]: 29.2 days | PR (partial response) ([3]; Group 3: 0.5 mg/kg s.c.): 3 | Log10 cell kill (750 mm^3) ([3]; Group 3: 0.5 mg/kg s.c.): 0.57 | Hazard Ratio [3, 9]: 1.588 | Median survival Ratio [3, 9]: 0.9365 | Hazard Ratio [3, 10]: 5.491 | Median survival Ratio [3, 10]: 0.7657 | Median Survival (to 2000 mm^3) ([3]; Group 4: 1.0 mg/kg s.c.): 31.18 days | % TGD (tumor growth delay) [3, 11]: 44.1% | Median TTE (time to tumor endpoint, 2000 mm^3) [3, 11]: 31.2 days | PR (partial response) ([3]; Group 4: 1.0 mg/kg s.c.): 4 | Log10 cell kill (750 mm^3) ([3]; Group 4: 1.0 mg/kg s.c.): 0.45 | Hazard Ratio [3, 12]: 1.674 | Median survival Ratio [3, 12]: 0.8177 | Median Survival (to 2000 mm^3) ([3]; Group 5: 1.0-2.0 mg/kg s.c.): 38.14 days | PR (partial response) ([3]; Group 5: 1.0 to 2.0 mg/kg s.c.): 6 | Log10 cell kill (750 mm^3) ([3]; Group 5: 1.0 to 2.0 mg/kg s.c.): 0.89 | % TGD (tumor growth delay) [3, 13]: 76.2% | Median TTE (time to tumor endpoint, 2000 mm^3) [3, 13]: 38.1 days | nadir mean % body weight change ([1]; 0.5 mg/kg dose cohort, day 2): −4.43% | nadir mean % body weight change ([1]; 1.0 mg/kg dose cohort, day 3): −11.82% | tolerability of dosing protocols [1]: generally well-tolerated | tolerability of dosing protocols ([1]; listed as Avicin): generally well tolerated | body weight loss ([1]; Group 3 (0.5 mg/kg s.c.), peaked at day 2): 4% | animals removed from the study due to drug toxicity / treatment related deaths (TR) [1]: Two | animals removed from the study due to drug toxicity / treatment related deaths (TR) ([1]; listed as Avicin): two and Two | transient body weight loss ([1]; Groups 4 and 5 (1.0 and 1.0-2.0 mg/kg s.c.), dosing suspended days 3 and 4): 10% | nadir average % body weight change ([1]; escalating dose 1.0-2.0 cohort, day 3): −10.42% | injection site findings ([1]; several Group 3, 4 and 5 mice, s.c.): irritation and/or bleeding at the injection site

From patent US20160243142A1, “AVICIN D FOR TREATMENT OF MANTLE CELL LYMPHOMA” (Research Development Foundation, priority 2015, published 2016)
